Molecular target: T1, hSTING (Homo sapiens, UniProt Q86WV6, G230A/H232R/R293Q/R71H)
T1 construct: host or cells: THP1-Dual KO-IFNAR2 cells
Assay: STING reporter assay (luciferase) in THP1-Dual KO-IFNAR2 cells stimulated with 2'3'cGAMP
Assay type: cell-based
Conditions: 2'3'cGAMP 15 μM, 24 h, luciferase reporter activity
Procedure: STING pathway activation by the compounds described herein is measured using THP1-Dual™ cells (KO-IFNAR2).
THP1-Dual™ KO-IFNAR2 Cells (obtained from invivogen) are maintained in RPMI, 10% FCS, 5 ml P/S, 2 mM L-glut, 10 mM Hepes, and 1 mM sodium pyruvate.
Compounds are spotted in empty 384 well tissue culture plates (Greiner 781182) by Echo for a final concentration of 0.0017-100 μM. Cells are plated into the TC plates at 40 μL per well, 2×10E6 cells/mL. For activation with STING ligand, 2′3′cGAMP (MW 718.38, obtained from Invivogen), is prepared in Optimem media.
The following solutions are prepared for each 1×384 plate: • Solution A: 2 mL Optimem with one of the following stimuli: • 60 uL of 10 mM 2′3′cGAMP->150 μM stock • Solution B: 2 mL Optimem with 60 μL Lipofectamine 2000->Incubate 5 min at RT
2 mL of solution A and 2 ml Solution B is mixed and incubated for 20 min at room temperature (RT). 20 uL of transfection solution (A+B) is added on top of the plated cells, with a final 2′3′cGAMP concentration of 15 μM. The plates are then centrifuged immediately at 340 g for 1 minute, after which they are incubated at 37° C., 5% CO2, >98% humidity for 24 h. Luciferase reporter activity is then measured. EC50 values are calculated by using standard methods known in the art.
Luciferase reporter assay: 10 μL of supernatant from the assay is transferred to white 384-plate with flat bottom and squared wells. One pouch of QUANTI-Luc™ Plus us dissolved in 25 mL of water. 100 μL of QLC Stabilizer per 25 mL of QUANTI-Luc™ Plus solution is added. 50 μL of QUANTI-Luc™ Plus/QLC solution per well is then added. Luminescence is measured on a Platereader (e.g., Spectramax I3X (Molecular Devices GF3637001)).
Luciferase reporter activity is then measured. EC50 values are calculated by using standard methods known in the art.

T1 sequence (Q86WV6 whole entry R71H/G230A/H232R/R293Q): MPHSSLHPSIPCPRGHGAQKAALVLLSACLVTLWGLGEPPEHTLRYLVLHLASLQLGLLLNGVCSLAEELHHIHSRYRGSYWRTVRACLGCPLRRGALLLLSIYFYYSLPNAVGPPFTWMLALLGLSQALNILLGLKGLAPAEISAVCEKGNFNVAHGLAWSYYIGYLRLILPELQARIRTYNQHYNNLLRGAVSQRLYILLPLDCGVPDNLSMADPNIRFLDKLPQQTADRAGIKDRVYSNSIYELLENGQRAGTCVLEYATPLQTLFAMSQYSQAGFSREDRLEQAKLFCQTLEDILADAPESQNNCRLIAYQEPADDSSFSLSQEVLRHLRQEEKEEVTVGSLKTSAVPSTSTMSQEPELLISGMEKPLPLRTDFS

| EC50 | SMILES |
| --- | --- |
| 40 to 200 nM | CSc1ccc2[nH]cc(NC(=O)Nc3cnc(N4CCC(F)(F)CC4)c(Cl)c3)c2c1 [Compound 183, 1-(5-chloro-6-(4,4-difluoropiperidin-1-yl)pyridin-3-yl)-3-(5-(methylthio)-1H-indol-3-yl)urea] |
| 40 to 200 nM | Cc1cc(NC(=O)Nc2c[nH]c3ccc(Br)cc23)cnc1N1CCC(F)(F)CC1 [Compound 184, 1-(5-bromo-1H-indol-3-yl)-3-(6-(4,4-difluoropiperidin-1-yl)-5-methylpyridin-3-yl)urea] |
| 200 to 1000 nM | COCCO[C@@H]1CCN(c2ncc(NC(=O)Nc3c[nH]c4cc(F)c(F)cc34)cc2Cl)C1 [Compound 185, (R)-1-(5-chloro-6-(3-(2-methoxyethoxy)pyrrolidin-1-yl)pyridin-3-yl)-3-(5,6-difluoro-1H-indol-3-yl)urea] |
| 200 to 1000 nM | O=C(Nc1cnc(N2CC3(CCOC3)C2)c(Cl)c1)Nc1c[nH]c2cc(F)c(F)cc12 [Compound 186, 1-(5-chloro-6-(6-oxa-2-azaspiro[3.4]octan-2-yl)pyridin-3-yl)-3-(5,6-difluoro-1H-indol-3-yl)urea] |
| 200 to 1000 nM | COC1(C)CN(c2ncc(NC(=O)Nc3c[nH]c4cc(F)c(F)cc34)cc2Cl)C1 [Compound 187, 1-(5-chloro-6-(3-methoxy-3-methylazetidin-1-yl)pyridin-3-yl)-3-(5,6-difluoro-1H-indol-3-yl)urea] |
| 200 to 1000 nM | C[C@H]1CN(c2ncc(NC(=O)Nc3c[nH]c4cc(F)c(F)cc34)cc2Cl)CCO1 [Compound 188, (S)-1-(5-chloro-6-(2-methylmorpholino)pyridin-3-yl)-3-(5,6-difluoro-1H-indol-3-yl)urea] |
| 40 to 200 nM | O=C(Nc1cnc(N2CCC(F)(F)CC2)cn1)Nc1c[nH]c2ccc(Cl)cc12 [Compound 189, 1-(5-chloro-1H-indol-3-yl)-3-(5-(4,4-difluoropiperidin-1-yl)pyrazin-2-yl)urea] |
| 200 to 1000 nM | O=C(Nc1ccc(C2CCC(F)(F)CC2)nc1)Nc1c[nH]c2ccccc12 [Compound 190, 1-(6-(4,4-difluorocyclohexyl)pyridin-3-yl)-3-(1H-indol-3-yl)urea] |
| 200 to 1000 nM | O=C(Nc1cnc(C2CCC(F)(F)CC2)c(Cl)c1)Nc1c[nH]c2ccc(O)cc12 [Compound 191, 1-(5-chloro-6-(4,4-difluorocyclohexyl)pyridin-3-yl)-3-(5-hydroxy-1H-indol-3-yl)urea] |
| 40 to 200 nM | O=C(Nc1ccc(C2CCC(F)(F)CC2)nc1)Nc1c[nH]c2ccc(I)cc12 [Compound 192, 1-(6-(4,4-difluorocyclohexyl)pyridin-3-yl)-3-(5-iodo-1H-indol-3-yl)urea] |
| 40 to 200 nM | O=C(Nc1cnc(N2CCC(F)(F)CC2)c(Cl)c1)Nc1c[nH]c2ccc(F)cc12 [Compound 193, 1-(5-chloro-6-(4,4-difluoropiperidin-1-yl)pyridin-3-yl)-3-(5-fluoro-1H-indol-3-yl)urea] |
| 200 to 1000 nM | O=C(Nc1cnc(N2CCC(F)(F)CC2)cn1)Nc1c[nH]c2cc(F)c(F)cc12 [Compound 194, 1-(5,6-difluoro-1H-indol-3-yl)-3-(5-(4,4-difluoropiperidin-1-yl)pyrazin-2-yl)urea] |
| 40 to 200 nM | Cc1cc(NC(=O)Nc2c[nH]c3ccc(F)cc23)cnc1N1CCC(F)(F)CC1 [Compound 195, 1-(6-(4,4-difluoropiperidin-1-yl)-5-methylpyridin-3-yl)-3-(5-fluoro-1H-indol-3-yl)urea] |
| 40 to 200 nM | O=C(Nc1cnc(N2CCC(F)(F)CC2)c(Cl)c1)Nc1c[nH]c2ccc(Cl)cc12 [Compound 196, 1-(5-chloro-1H-indol-3-yl)-3-(5-chloro-6-(4,4-difluoropiperidin-1-yl)pyridin-3-yl)urea] |
| 40 to 200 nM | Cc1ccc2[nH]cc(NC(=O)Nc3cnc(N4CCC(F)(F)CC4)c(C)c3)c2c1 [Compound 197, 1-(6-(4,4-difluoropiperidin-1-yl)-5-methylpyridin-3-yl)-3-(5-methyl-1H-indol-3-yl)urea] |
| 40 to 200 nM | Cc1cc(NC(=O)Nc2c[nH]c3ccccc23)cnc1N1CCC2(CC1)CC2 [Compound 198, 1-(1H-indol-3-yl)-3-(5-methyl-6-(6-azaspiro[2.5]octan-6-yl)pyridin-3-yl)urea] |
| 40 to 200 nM | O=C(Nc1cnc(N2CCC(F)(F)CC2)c(Cl)c1)Nc1c[nH]c2cc(F)c(F)cc12 [Compound 199, 1-(5-chloro-6-(4,4-difluoropiperidin-1-yl)pyridin-3-yl)-3-(5,6-difluoro-1H-indol-3-yl)urea] |
| 40 to 200 nM | Cc1cc(NC(=O)Nc2c[nH]c3cc(F)c(F)cc23)cnc1N1CCC(F)(F)CC1 [Compound 200, 1-(5,6-difluoro-1H-indol-3-yl)-3-(6-(4,4-difluoropiperidin-1-yl)-5-methylpyridin-3-yl)urea] |
| 200 to 1000 nM | Cc1cc(NC(=O)Nc2c[nH]c3ccccc23)cnc1N1CCC(F)(F)CC1 [Compound 201, 1-(6-(4,4-difluoropiperidin-1-yl)-5-methylpyridin-3-yl)-3-(1H-indol-3-yl)urea] |
| 1000 to 5000 nM | COC1CCN(c2ncc(NC(=O)Nc3c[nH]c4ccccc34)cc2C)CC1 [Compound 202, 1-(1H-indol-3-yl)-3-(6-(4-methoxypiperidin-1-yl)-5-methylpyridin-3-yl)urea] |
| 40 to 200 nM | O=C(Nc1ccc(C2CCC(F)(F)CC2)nc1)Nc1c[nH]c2ccc(Br)cc12 [Compound 203, 1-(5-bromo-1H-indol-3-yl)-3-(6-(4,4-difluorocyclohexyl)pyridin-3-yl)urea] |
| 1000 to 5000 nM | O=C(Nc1ccc(N2CCC(F)(F)CC2)nn1)Nc1c[nH]c2ccccc12 [Compound 204, 1-(6-(4,4-difluoropiperidin-1-yl)pyridazin-3-yl)-3-(1H-indol-3-yl)urea] |
| 200 to 1000 nM | O=C(Nc1cnc(N2CCC(F)(F)CC2)cn1)Nc1c[nH]c2ccccc12 [Compound 205, 1-(5-(4,4-difluoropiperidin-1-yl)pyrazin-2-yl)-3-(1H-indol-3-yl)urea] |
| 40 to 200 nM | O=C(Nc1cnc(N2CCC(F)(F)CC2)c(Cl)c1)Nc1c[nH]c2ccccc12 [Compound 206, 1-(5-chloro-6-(4,4-difluoropiperidin-1-yl)pyridin-3-yl)-3-(1H-indol-3-yl)urea] |
| 40 to 200 nM | N#Cc1cc(NC(=O)Nc2c[nH]c3ccccc23)ccc1C1CCC(F)(F)CC1 [Compound 207, 1-(3-cyano-4-(4,4-difluorocyclohexyl)phenyl)-3-(1H-indol-3-yl)urea] |
| 1000 to 5000 nM | O=C(Nc1cnc(N2CCC(F)(F)CC2)c(Cl)c1)Nc1c[nH]c2ccc(Br)cc12 [Compound 208, 1-(5-bromo-1H-indol-3-yl)-3-(5-chloro-6-(4,4-difluoropiperidin-1-yl)pyridin-3-yl)urea] |
| 200 to 1000 nM | O=C(Nc1cnn(C2CCC(F)(F)CC2)c1)Nc1c[nH]c2ccc(Cl)cc12 [Compound 209, 1-(5-chloro-1H-indol-3-yl)-3-(1-(4,4-difluorocyclohexyl)-1H-pyrazol-4-yl)urea] |
| 1000 to 5000 nM | O=C(Nc1cn(C2CCC(F)(F)CC2)cn1)Nc1c[nH]c2ccc(F)cc12 [Compound 210, 1-[1-(4,4-difluorocyclohexyl)imidazol-4-yl]-3-(5-fluoro-1H-indol-3-yl)urea] |
| 1000 to 5000 nM | O=C(Nc1ccn(C2CCC(F)(F)CC2)n1)Nc1c[nH]c2ccc(F)cc12 [Compound 211, 1-(1-(4,4-difluorocyclohexyl)-1H-pyrazol-3-yl)-3-(5-fluoro-1H-indol-3-yl)urea] |
